# Patent US10220025B1, “Self-emulsifying formulation of CARP-1 functional mimetics” (Florida A&M University, priority 2016, dated 2019)
# Assays:
# [1] = solubility observations; format: physicochemical
# [2] = tested on: drug-resistant TNBC cells; test: MTT viability assay, drug-resistant TNBC sublines (not singled out); format: cell-based; settings: 12 h; FIGS. 4A-4E
# Experimental: (§1) Human TNBC MDA-MB-468 and MDA-MB-231, and mouse TNBC 4T1 cells were cultured in the chronic presence (>10 months) of Doxorubicin. The parental, wild-type cells were initially treated with 200 nM Doxorubicin for 2-3 weeks, followed by escalation to 400 nM, 1 μM, and 2 μM doses over a period of 3-4 weeks for each dose till resistance developed and the cells became well adapted to growth in […] of Doxorubicin for their routine culture. In the case of Cisplatin however, the human TNBC MDA-MB-468 and MDA-MB-231 were initially cultured in continuous presence of 1 μM Cisplatin for 3-4 weeks, and the dose was escalated to 1.5 μM and 3 μM over periods of 3-4 weeks for each dose till resistance developed and cells became adapted to routine culture in 3 μM dose. Subsequent, routine maintenance of the resistant cells in the presence of the respective drug was continued and multiple, resistant sublines for each of the TNBC cells were isolated and characterized for their growth inhibitory (GI)50 dose of respective therapeutic by the MTT-based viability assays as below.
# [3] = tested on: HeLa cervical cancer cells; test: MTT viability assay, HeLa; format: cell-based; settings: 20 μM; 24 h; FIG. 3A
# Description: (§2) The current inventors' previous studies have indicated cancer cell growth inhibitory properties of CFMs in particular CFM-4 and CFM-5 [Puliyappadamba et al.]. […] J. Biomed. Nanotechnol. 2015; 11:1608-1627]. […] J. Biomed. Nanotechnol. 2015; 11:1608-1627]. On the basis of these findings, it was speculated that solubility and/or potency of the CFM-4 scaffold could be improved for its utility as a novel anti-TNBC molecule. To address this possibility, twelve (12) additional analogs of CFM-4 (Table 2) were synthesized using medicinal chemistry based structure activity relationship (SAR) studies. Each of the analog was suspended in DMSO, and their potency was evaluated in cell culture studies utilizing HeLa cervical cancer, MDA-MB-468 TNBC, and H2461 malignant pleural mesothelioma (MPM) cells by MTT based assays. […] Moreover, a 10 μM dose of CFM-4 inhibited MDA-MB-231 and MDA-MB-468 viabilities by ˜30% and 45%, respectively.
# [4] = pharmacokinetic study of CFM-4.16 NLF and free drug (Study 2); format: in vivo, Sprague Dawley Rats; settings: rats; 40 mg/kg orally
# Experimental: J. Biomed. Nanotechnol. 2015; 11:1608-1627]. Briefly, rats were fasted overnight prior to the start of experiments and randomly divided into three experimental groups receiving CFM-4.16 FD and CFM-4.16 NLF at 40 mg/kg orally and CFM-4.16 solution (CFM-4.16 sol) at 5 mg/kg by intravenous route. After the drug administration, blood samples (250 μl) were withdrawn from tail veins at 0, 0.25, 0.5, 1, 2, 4, 6, 8, 12 and 24 h, and collected directly into heparinized microvet blood collection tubes and plasma was obtained by centrifugation at 10,000 rpm for 10 min. The plasma samples were stored at −80° C. until needed for analysis. CFM-4.16 was extracted from the plasma by protein precipitation method and extracted samples were dissolved in mobile phase and samples were analyzed by HPLC. Oral bioavailability of CFM-4.16 FD and CFM-4.16 NLF along with their pharmacokinetic parameters such as area under curve (AUC), Cmax, t½, and tmax were estimated using non-compartmental techniques with WinNonlin® 5.0 software (Pharsight Corporation, Mountain View, Calif., USA).
# [5] = tested on: Adriamycin-resistant (ADR-R) MDA-MB-468 sublines; test: MTT viability assay, ADR-resistant MDA-MB-468 sublines; format: cell-based, human; settings: ADR-resistant MDA-MB-468 subline 1; FIG. 5E
# Experimental: as §1
# [6] = tested on: MDA-MB-231 TNBC cells, wild type; test: MTT viability assay, parental MDA-MB-231; format: cell-based, human; settings: 10 μM dose
# Experimental: (§3) In vitro inhibition of cell growth was assessed by MTT (3-[4, 5-dimethyltiazol-2-yl]-2.5-diphenyl tetrazolium bromide) reagent. Cells (5×10^3) were seeded in a 96-well culture plate and subsequently treated with respective agents at different concentrations as mentioned. Control cells were treated with 0.1% DMSO in culture medium. After treatment, the cells were incubated with 1 mg/ml of MTT reagent at 37° C. for 2-4 hours and then MTT was removed and 50 μL of DMSO was added, followed by colorimetric analysis using a multi-label plate reader at 560 nm (Victor3; PerkinElmer, Wellesley, Mass., USA).
# [7] = tested on: MDA-MB-231 TNBC cells; settings: 470 mg/kg, Qd 1-19, iv, DMSO plus cremophor; not shown
# [8] = tested on: H2461 malignant pleural mesothelioma (MPM) cells; test: MTT viability assay, MPM cells; format: cell-based, human; settings: 20 μM; 24 h; FIG. 3A
# Description: as §2
# [9] = tested on: MDA-MB-468 TNBC cells, wild type; test: MTT viability assay, parental MDA-MB-468; format: cell-based, human
# Experimental: as §3
smiles,measurement,setting,value
O=C1N(Cc2ccccc2Cl)c2ccccc2C12NN=C(c1cccc(Cl)c1)S2 (stereo not shown) [CFM-4.16],aqueous solubility,[1],poor aqueous solubility
same,behaviour of DMA solution on addition of water,[1],immediately got precipitated
same,lipid solubility,[1],good lipid solubility
same,growth of ADR or Cisplatin-resistant TNBC sublines,[2],effectively inhibited growth
same,inhibition of viability compared with CFM-4,[3],greater inhibition of viability
same,AUC,[4],21070 ± 4200 ng·h/mL
same,plasma Cmax concentration,[4],1190 ± 35 ng/mL
same,effect of siRNA-mediated depletion of CARP-1 on growth inhibition by the compound,[5],interfered with growth inhibition
same,inhibition / loss of cell viability,[6],80-100%
same,tumor growth inhibition (T/C),[7],failed to yield a therapeutic T/C values
same,loss of viability compared with CFM-4,[8],greater loss of viability
same,inhibition / loss of cell viability,[9]; 10 μM dose,80-100%
same,inhibition of viability compared with CFM-4,"[9]; 20 μM, 24 h, FIG. 3A",greater inhibition of viability
